# According to the supplement of paper PMC10307832:
# How the values were obtained:
# Test in all cases: relative viability (nuclei count vs DMSO), 5 days (fraction); higher = more cells survive
# Carfilzomib + Pictilisib = compound: CC(C)C[C@H](NC(=O)[C@H](CCc1ccccc1)NC(=O)CN1CCOCC1)C(=O)N[C@@H](Cc1ccccc1)C(=O)N[C@@H](CC(C)C)C(=O)[C@@]1(C)CO1 [Carfilzomib] + CS(=O)(=O)N1CCN(Cc2cc3nc(-c4cccc5[nH]ncc45)nc(N4CCOCC4)c3s2)CC1 [Pictilisib] (partner 1 µM)
# Procedure, shortened: (§1)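 Relative viability was taken as the ratio of nuclei in treated wells to nuclei in vehicle wells. Lung cancer cell lines in 1536-well plates received compounds by pin tool one day after seeding, either one drug alone or a fixed anchor-drug dose plus five library-drug doses (not always all listed) in √10 steps. Nuclei were counted on 4× images after 5 days of treatment, and values are medians of duplicate plates.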
# [1] = compound: CC(C)C[C@H](NC(=O)[C@H](CCc1ccccc1)NC(=O)CN1CCOCC1)C(=O)N[C@@H](Cc1ccccc1)C(=O)N[C@@H](CC(C)C)C(=O)[C@@]1(C)CO1 [Carfilzomib] + CC(=O)c1c(C)c2cnc(Nc3ccc(N4CCNCC4)cn3)nc2n(C2CCCC2)c1=O [Palbociclib] (partner 0.5 µM)
# Procedure, shortened: as §1
# Crizotinib + Olaparib = compound: C[C@@H](Oc1cc(-c2cnn(C3CCNCC3)c2)cnc1N)c1c(Cl)ccc(F)c1Cl [Crizotinib] + O=C(c1cc(Cc2n[nH]c(=O)c3ccccc23)ccc1F)N1CCN(C(=O)C2CC2)CC1 [Olaparib] (partner 8 µM)
# Procedure, shortened: as §1
# Carfilzomib + Tozasertib = compound: CC(C)C[C@H](NC(=O)[C@H](CCc1ccccc1)NC(=O)CN1CCOCC1)C(=O)N[C@@H](Cc1ccccc1)C(=O)N[C@@H](CC(C)C)C(=O)[C@@]1(C)CO1 [Carfilzomib] + Cc1cc(Nc2cc(N3CCN(C)CC3)nc(Sc3ccc(NC(=O)C4CC4)cc3)n2)n[nH]1 [Tozasertib] (partner 0.1 µM)
# Procedure, shortened: as §1
# Olaparib + AZD7762 = compound: O=C(c1cc(Cc2n[nH]c(=O)c3ccccc23)ccc1F)N1CCN(C(=O)C2CC2)CC1 [Olaparib] + NC(=O)Nc1cc(-c2cccc(F)c2)sc1C(=O)N[C@H]1CCCNC1 [AZD7762] (partner 0.2 µM)
# Procedure, shortened: as §1
cell line,measurement,setting,value
NCI-H1793,relative viability,Carfilzomib + Pictilisib; first compound 0.003162 µM,0.328
same,relative viability,Carfilzomib + Pictilisib; first compound 0.01 µM,0.293
same,relative viability,Carfilzomib + Pictilisib; first compound 0.03162 µM,0.335
same,relative viability,Carfilzomib + Pictilisib; first compound 0.1 µM,0.248
same,relative viability,[1]; first compound 0.001 µM,0.338
same,relative viability,[1]; first compound 0.003162 µM,0.402
same,relative viability,[1]; first compound 0.01 µM,0.331
same,relative viability,[1]; first compound 0.03162 µM,0.275
same,relative viability,[1]; first compound 0.1 µM,0.197
same,relative viability,Crizotinib + Olaparib; first compound 0.1 µM,0.835
same,relative viability,Crizotinib + Olaparib; first compound 1 µM,0.903
same,relative viability,Carfilzomib + Tozasertib; first compound 0.003162 µM,0.469
same,relative viability,Carfilzomib + Tozasertib; first compound 0.01 µM,0.327
same,relative viability,Carfilzomib + Tozasertib; first compound 0.03162 µM,0.292
same,relative viability,Carfilzomib + Tozasertib; first compound 0.1 µM,0.123
same,relative viability,Olaparib + AZD7762; first compound 0.08 µM,0.747
same,relative viability,Olaparib + AZD7762; first compound 0.253 µM,0.438
same,relative viability,Olaparib + AZD7762; first compound 2.53 µM,0.488
same,relative viability,Olaparib + AZD7762; first compound 8 µM,0.283
